Test system: dermal equivalent comprising a collagen matrix seeded with normal human fibroblasts
Experiment: Spontaneous contraction of attached dermal equivalent (dermo-decontracting effect)
Format: cell-based
Conditions: for inhibition of contraction of the dermal equivalent (in words): different concentrations
Excerpt: The principle of this test entails studying the dermo-decontracting effect of (R)(+)-trans-N-(4-pyridyl)-4-(1-aminoethyl)cyclohexanecarboxamide dihydrochloride (Y-27632) on a model of dermal equivalent comprising a collagen matrix seeded with normal human fibroblasts. These conditions are intended to mimic in vitro the dermal contractile phenomena that take place during facial expressions. Under these conditions, specifically, the cells spontaneously express tensile forces that induce a retraction of the collagen gel. […] Measurement of this area makes it possible to evaluate the relaxation effects of substances placed in contact beforehand with the dermal equivalent. Four series of 3 attached dermal equivalents containing normal human fibroblasts are prepared: a control series without any treatment, and three series treated with (R)(+)-trans-N-(4-pyridyl)-4-(1-aminoethyl)cyclohexanecarboxamide dihydrochloride at different concentrations. The experiment is repeated three times. The dermal equivalents are prepared as described in Asselineau et al., Exp. Cell. Res. 1985, 159, 536-539; Models in Dermatology, 1987, Vol. 33, pp. 1-7, in the following proportions: [table] The treated dermal equivalent differs from the control dermal equivalent in that variable amounts of (R)(+)-trans-N-(4-pyridyl)-4-(1-aminoethyl)cyclohexanecarboxamide dihydrochloride are added thereto. The collagen used is type I collagen (commercial solution), but a collagen of type III or IV may also be used. It is extracted from rat tails or from calf skin by acidic hydrolysis and stored in acidic medium at +4° C.; it naturally polymerizes on heating to 37° C. and on reducing the level of acidity. The collagen is predialyzed against successive baths of water+acetic acid. The protocol is as follows: 1.76×MEM medium in the presence of additives (1% glutamine, 1% nonessential amino acids, 1% sodium pyruvate, 1% fungizone and 1% penicillin/streptomycin), foetal calf serum and 0.1 N NaOH are introduced into a sterile flask tube. The fibroblasts isolated from human skin explants are then added at a concentration of 1.4×10^5 cells per 1 ml of culture medium. A volume/volume mixture of collagen in acetic acid to 1/1000 is then added slowly, against the wall of the tube so as to observe the appearance of a whitish cloud. The whole is then mixed cautiously and distributed in the wells of a 12-well culture plate (of the type Costar reference 3512) at a rate of 0.5 ml of mixture per cm^2. The culture plate is then placed in an incubator at 37° C. with 5% CO2. Once formed after polymerization of the collagen, the dermal equivalents are left adhering to the culture support for 3 days and then detached from the support in order for the contraction to be able to start. These attached dermal equivalents are removed from the incubator for the taking of the images to measure their surface area, for each point of the contraction kinetics (0, 4, 8 and 24 hours). They are immediately returned to the incubator between each measuring point. The evaluation of the spontaneous contraction of the treated dermal equivalents (treated with (R)(+)-trans-N-(4-pyridyl)-4-(1-aminoethyl)cyclohexanecarboxamide dihydrochloride) and control dermal equivalents (without (R)(+)-trans-N-(4-pyridyl)-4-(1-aminoethyl)cyclohexanecarboxamide) is performed by measuring their surface area, at different times after the start of the spontaneous contraction. To do this, a digital image is acquired for each treated or untreated dermal equivalent using a camera (Sony DXC-107P CCD-Iris camera) and the area is then calculated on each image using an image analysis system (Zeiss Axiovision 3.0). […]

[1] = 0.1 μM, 4 hours after detaching from support
[2] = 0.1 μM, 8 hours after detaching from support
[3] = 0.1 μM, 24 hours after detaching from support
[4] = 1 μM, 4 hours after detaching from support
[5] = 1 μM, 8 hours after detaching from support
[6] = 1 μM, 24 hours after detaching from support

Row | SMILES | reduction of percentage of contraction relative to the control [1] | reduction of percentage of contraction relative to the control [2] | reduction of percentage of contraction relative to the control [3] | reduction of percentage of contraction relative to the control [4] | reduction of percentage of contraction relative to the control [5] | reduction of percentage of contraction relative to the control [6] | reduction of percentage of contraction relative to the control (5 μM, 4 hours after detaching from support) | reduction of percentage of contraction relative to the control (5 μM, 8 hours after detaching from support) | reduction of percentage of contraction relative to the control (5 μM, 24 hours after detaching from support) | inhibition of contraction of the dermal equivalent (in words) | effectiveness compared with Y-27632 at the same concentrations (same concentrations) | reversibility of the inhibition of contraction
1 | O=S(=O)(c1cccc2cnccc12)N1CCCNCC1 [1-(5-isoquinolinesulfonyl)homopiperazine] | 2.6% | 2.4% | 1.5% | 8% | 9.5% | 8.2% | 17% | 19.4% | 22.2% | dose-dependent inhibition of contraction | less effective than | –
2 | C[C@@H](N)[C@H]1CC[C@H](C(=O)Nc2ccncc2)CC1.Cl.Cl [(R)(+)-trans-N-(4-pyridyl)-4-(1-aminoethyl)cyclohexanecarboxamide dihydrochloride] | 6.1% | 6.4% | 7.2% | 20.6% | 24.4% | 29.3% | – | – | – | dose-dependent inhibition of contraction | – | reversible
